Legend:
[1] = system: stably transfected cell line; test: neutral red cellular toxicity check of the cultures; type: cell-based; conditions: neutral red 3 hours at 37° C., read at 540 nm
Procedure: On another batch of plates not treated with Steady Glo, the state of the cultures is checked by microscope. The culture medium is removed and 100 μl of medium comprising neutral red are added for 3 hours at 37° C.
The medium is then removed and replaced for one minute with 100 μl of formaldehyde-calcium (10 ml of 37% formaldehyde+calcium chloride dihydrate 10 g qs 1 L).
The plate is emptied and 100 μl of acetic acid-ethanol mixture (10 ml of glacial acetic acid+500 ml of absolute ethanol qs 1 L) are added to each well for 15 minutes with stirring.
The plates are then read at 540 nm. The stronger the coloration, […].

[2] = system: human CETP promoter; test: luciferase reporter under the control of the human CETP promoter, inhibition of CETP expression; type: cell-based; conditions: final concentration of 15 μM, incubated overnight, Steady Glo luciferase read by luminometer
Procedure: The stably transfected cell line (luciferase under the control of the human CETP promoter) is maintained in the growth medium (DMEM/Hepes, F12, Glutamax, FBS and geneticin) incubated at 37° C., 95% humidity and 5% CO2 to the point of confluence. The cells are then rinsed with PBS and detached with a trypsin/EDTA mixture. The medium is changed every 2 to 3 days.
The resuspended cells are diluted and counted, and then distributed in microplate (96) wells.
About 20 000 cells per well are distributed and incubated overnight at 37° C. with 5% CO2.
The compounds of the present invention are diluted to a final concentration of 15 μM and distributed in the plates containing the cells.
The plates are incubated overnight at 37° C. with 5% CO2.
The medium covering the cells is drawn off and 100 μl of Steady Glo luciferase (DMEM without phenol red/Steady Glo, V/V) are added to the cells.
The plates are sealed with a film and left in the dark for about 20 minutes at room temperature.
The plates are then read using a luminometer (1 sec/well).
The inhibition of CETP expression by the products is expressed as a percentage of the control: […]

CC(C)CCN=C(NCC(C)(C)CN)Nc1ccc(OCc2ccccc2)cc1 [Example 5, N-(3-Amino-2,2-dimethylpropyl)-N′-(4-benzyloxyphenyl)-N″-(3-methylbutyl)-guanidine]
cellular toxicity [1]: No cellular toxicity is detected | activity expressed as a percentage of the control [2]: 46%

COCCOc1ccc(N=C(NCCCN)N2CCC(C)CC2)cc1 [Example 31, N-(3-Aminopropyl)-N′-[4-(2-methoxyethoxy)phenyl]-4-methylpiperidine-1-carboxamidine]
cellular toxicity [1]: No cellular toxicity is detected | activity expressed as a percentage of the control [2]: 30%

CCC1CCCCN1C(=Nc1ccc(OCc2ccc(C(C)(C)C)cc2)cc1)NCCCN (centres unmarked) [Example 61, N-(3-Aminopropyl)-N′-[4-(4-tert-butylbenzyloxy)phenyl]-2-ethylpiperidine-1-carboxamidine]
cellular toxicity [1]: No cellular toxicity is detected | activity expressed as a percentage of the control [2]: 33%

NCCCNC(=Nc1ccc(OCCCC(F)(F)F)cc1)N1CCC(Cc2ccccc2)CC1 [Example 95, N-(3-Aminopropyl)-4-benzyl-N′-[4-(4,4,4-trifluorobutoxy)phenyl]piperidine-1-carboxamidine]
cellular toxicity [1]: No cellular toxicity is detected | activity expressed as a percentage of the control [2]: 16%

From US7582656B2, “Guanidine derivatives and therapeutic uses thereof” (Merck Patent Gesellschaft, priority 2004, dated 2009)
